{"source": "patent US10357479B2", "about": "“Angiotensin II receptor antagonist for the prevention or treatment of systemic diseases in cats” (priority 2006, dated 2019)", "key": {"[1]": {"test_system": "angiotensin II receptor 1 (AT-1)", "assay": "Angiotensin II induced increase in diastolic blood pressure in laboratory cats after oral dosing", "format": "in vivo", "details": "approximately 24 hours after the last oral dosing, target dose vs Placebo"}, "[2]": {"test_system": "angiotensin II receptor 1 (AT-1)", "assay": "Escalating intravenous dose: blood pressure response of anaesthetised cats after angiotensin II (Example 2)", "format": "in vivo", "method": "Four clinically healthy adult male and female domestic short hair cats (HsdCpb: CADS) with a body weight range of 2.5-3.5 kg were used in this study. The animals were anaesthetised with sodium pentobarbital and anaesthesia was sustained by continuous infusion of diluted anaesthetic. A catheter was inserted into a carotid artery and connected to a pressure transducer for registration of the arterial pressure. […] The systolic and diastolic blood pressure [mmHg] in the carotid artery were recorded and analysed at discrete intervals as described below.\nAt first, the diastolic blood pressure was registered 6 times every 5 minutes. The mean of these 6 measurements were set as the baseline blood pressure. Then two bolus injections of A2 were administered at a dose of 0.1 μg/kg in an interval of 10 min. The maximum increase in diastolic blood pressure obtained from the second A2-bolus relative to the baseline blood pressure was taken as the control angiotensin II-blood pressure response (i.e. reference value).\nThirty minutes later the diastolic blood pressure was recorded, immediately followed by bolus injection of A2 at a dose of 0.1 μg/kg and the maximum increase in diastolic blood pressure was obtained. This procedure was to be repeated accordingly until the intended endpoint of the experiment (i.e. an A2-pressure response ≤10% of the control A2-pressure response corresponding to ≥90% inhibition) was reached. […] At the end of the experiment, the anaesthetised animals were euthanized with an overdose of sodium pentobarbital."}, "[3]": {"assay": "Safety after repeated oral administration over four weeks (Example 3)", "format": "in vivo, cats", "method": "The animals were allocated to 3 groups, 4 animals per group. […] The bottles with the test/control article looked identical with the exception of the animal no. in order to achieve blinding.\nBlood samples for haematology and clinical chemistry were collected from the animals on days-1 (i.e. prior to the first treatment) and again on days 3, 7, 14, 28. Body weights were measured weekly and electrocardiography recording were made on days-1, 14, 21 and 28. A detailed physical examination including determination of rectal temperature and respiratory rate was carried out on days-1, 7, 14, 22 and 28. Systolic blood pressure (once daily) and heart rate (twice daily) were determined five days per week beginning prior to treatment until necropsy. The palatability of the administered article was assessed at various time points throughout treatment using a scoring system. On day 28 of the study, all animals were subjected to necropsy and stomach and kidneys were examined histopathologically. Relevant parameters were analysed using appropriate statistical procedures."}, "[4]": {"assay": "Pharmacokinetics and absolute bioavailability in plasma after single oral or intravenous administration (Example 1)", "details": "for AUC(0-inf) / half-life / t max / V/f or V / t ½ / AUC 0 → ∞: single dose 1 mg/kg, mean; for half-life: t ½", "method": "Four clinically healthy male and female domestic short hair cats (HsdCpb: CADS) with a body weight range of 2.6-4.2 kg were used in this study. The animals were randomly allocated to 2 groups, 2 animals per group.\nBlood samples were drawn at 0 h (i.e. prior to treatment), 5 (after i. v. injection only), 15, 30 and 60 min as well as 2, 4, 8, 24, 72 and 96 h after each treatment. Clinical observations were also conducted at these time points. Plasma samples were sent to the analytical laboratory and analysed there using a validated method. The plasma levels measured in each animal were subjected to various pharmacokinetic calculations."}, "[5]": {"details": "human patients, 160 mg daily; cited from earlier work"}, "[6]": {"details": "oral once daily days 0 to 27, 1 and 3 mg/kg"}, "[7]": {"details": "both, domestic short hair (HsdCpb: CADS), plasma, po, 1 mg/kg"}}, "note": "Where “and” joins values, the source holds several entries; their conditions need not be identical. Identical values can stand only once. Entries after “also recorded” stand apart in the source; their conditions may differ."}
{"smiles": "CCCc1nc2c(C)cc(-c3nc4ccccc4n3C)cc2n1Cc1ccc(-c2ccccc2C(=O)O)cc1", "note": "[telmisartan, 4′-[2-n-propyl-4-methyl-6-(1-methylbenzimidazol-2-yl)-benzimidazol-1-ylmethyl]-biphenyl-2-carboxylic acid]", "values": [{"measurement": "diastolic blood pressure responses to increasing intravenous doses of Angiotensin II", "setting": "[1]", "result": "significantly reduced"}, {"measurement": "effect of further dose escalation", "setting": "[2]; all 4 animals", "result": "did not produce markedly higher effects; also recorded: did not produce an appropriate dose response relationship"}, {"measurement": "maximal inhibition of the blood pressure increase relative to the control angiotensin II-blood pressure response", "setting": "[2]; animal no. 101, reached at cumulative i.v. dose of 0.05 mg/kg", "result": 50, "unit": "%"}, {"measurement": "inhibition of the angiotensin II diastolic blood pressure response", "setting": "[2]; animal no. 102, after the 1st i.v. dose of 0.04 mg/kg", "result": 73, "unit": "%"}, {"measurement": "inhibition of the angiotensin II diastolic blood pressure response", "setting": "[2]; animal no. 151, cumulative i.v. dose of 0.04 mg/kg", "result": 73, "unit": "%"}, {"measurement": "inhibition of the angiotensin II diastolic blood pressure response", "setting": "[2]; animal no. 152, after the 1st i.v. dose of 0.02 mg/kg", "result": 73, "unit": "%"}, {"measurement": "maximal inhibition of the blood pressure increase relative to the control angiotensin II-blood pressure response", "setting": "[2]; animal nos. 102, 151, 152, final cumulative i.v. dose 0.34-0.4 mg/kg", "result": "80-95%"}, {"measurement": "inhibition of the angiotensin II diastolic blood pressure response", "setting": "[2]; cumulative i.v. dose of 0.04 mg/kg, 3 of 4 animals", "result": 73, "unit": "%"}, {"measurement": "inhibition of the blood pressure response", "setting": "[2]; doses of less than 0.05 mg per kg body weight, majority of the tested cats", "result": "about 75%"}, {"measurement": "effect on diastolic blood pressure increase after angiotensin II", "setting": "[2]; escalating intravenous doses, anaesthetised cats", "result": "led to an inhibition of the diastolic blood pressure increase"}, {"measurement": "endpoint of a 90% inhibition of the A2-pressure response", "setting": "[2]; several consecutive escalating i.v. doses", "result": "could not be reached in 3 of 4 animals"}, {"measurement": "histopathology of stomach and kidneys", "setting": "[3]; day 28", "result": "no histopathological findings considered to be associated with the treatment"}, {"measurement": "necropsy findings", "setting": "[3]; day 28", "result": "No animal showed any specific finding"}, {"measurement": "systolic blood pressure, changes from baseline vs controls", "setting": "[3]; groups II (1 mg/kg) and III (3 mg/kg)", "result": "did not reveal significant differences"}, {"measurement": "systolic blood pressure vs control group I", "setting": "[3]; groups II (1 mg/kg) and III (3 mg/kg), single occasions after initiation of treatment", "result": "significantly lower"}, {"measurement": "systolic blood pressure, course of the mean values over time", "setting": "[3]; groups II and III vs group I, from day 20 onwards / towards the end of the study", "result": "tendency of a slight reduction"}, {"measurement": "body weights, rectal temperature, respiratory and heart rates", "setting": "[3]; [6]", "result": "No significant differences"}, {"measurement": "clinical findings", "setting": "[3]; [6]", "result": "No clinical findings clearly attributable to the treatment"}, {"measurement": "urinalysis", "setting": "[3]; [6]", "result": "not provide evidence of a treatment effect"}, {"measurement": "physical and ECG examinations", "setting": "[3]; oral once daily days 0 to 27, 1 and 3 mg/kg, all time points", "result": "did not reveal treatment-related findings"}, {"measurement": "haematological and clinical chemistry parameters including differential leukocyte count", "setting": "[3]; oral once daily days 0 to 27, 1 and 3 mg/kg, vs concurrent controls", "result": "No treatment-related differences"}, {"measurement": "plasma concentrations at 24 h", "setting": "[4]; 24 h after both routes, orally and intravenously", "result": "No quantifiable plasma concentrations"}, {"measurement": "time until which mean plasma concentrations increased", "setting": "[4]; after oral administration", "result": "15 to 30", "unit": "min"}, {"measurement": "bioavailability", "setting": "[4]; both, domestic short hair (HsdCpb: CADS), cat, plasma, po, 1 mg/kg, absolute bioavailability after oral administration, oral 1 mg/kg", "result": 33, "unit": "%"}, {"measurement": "MRT", "setting": "[4]; both, domestic short hair (HsdCpb: CADS), plasma, iv, 1 mg/kg", "result": 0.789, "unit": "h"}, {"measurement": "AUC(0-inf)", "setting": "[4]; both, domestic short hair (HsdCpb: CADS), plasma, iv, 1 mg/kg, i.v., first AUC line (r5)", "result": 0.385, "unit": "µg·h/mL"}, {"measurement": "AUC(0-inf)", "setting": "[4]; both, domestic short hair (HsdCpb: CADS), plasma, iv, 1 mg/kg, i.v., second AUC line (r7)", "result": 0.376, "unit": "µg·h/mL"}, {"measurement": "half-life", "setting": "[4]; both, domestic short hair (HsdCpb: CADS), plasma, iv, 1 mg/kg, i.v.", "result": 2.25, "unit": "h"}, {"measurement": "CL/F", "setting": "[4]; [7]", "result": 10.3, "unit": "L/h/kg"}, {"measurement": "Cmax", "setting": "[4]; [7]", "result": 0.138, "unit": "µg/mL"}, {"measurement": "MRT", "setting": "[4]; [7]", "result": 1.97, "unit": "h"}, {"measurement": "AUC(0-inf)", "setting": "[4]; both, domestic short hair (HsdCpb: CADS), plasma, po, 1 mg/kg, oral, first AUC line (r5)", "result": 0.15, "unit": "µg·h/mL"}, {"measurement": "AUC(0-inf)", "setting": "[4]; both, domestic short hair (HsdCpb: CADS), plasma, po, 1 mg/kg, oral, second AUC line (r7)", "result": 0.139, "unit": "µg·h/mL"}, {"measurement": "bioavailability", "setting": "[4]; both, domestic short hair (HsdCpb: CADS), plasma, po, 1 mg/kg, absolute bioavailability after oral administration, oral 1 mg/kg", "result": 33.6, "unit": "%"}, {"measurement": "bioavailability", "setting": "[4]; both, domestic short hair (HsdCpb: CADS), plasma, po, 1 mg/kg, absolute bioavailability, point estimate, for AUC 0→t, oral vs i.v. 1 mg/kg", "result": 31.6, "unit": "%"}, {"measurement": "bioavailability", "setting": "[4]; both, domestic short hair (HsdCpb: CADS), plasma, po, 1 mg/kg, absolute bioavailability, point estimate, for AUC 0→∞, oral vs i.v. 1 mg/kg", "result": 33.6, "unit": "%"}, {"measurement": "t max", "setting": "[4]; both, domestic short hair (HsdCpb: CADS), plasma, po, 1 mg/kg, t max, oral", "result": 0.44, "unit": "h"}, {"measurement": "half-life", "setting": "[4]; both, domestic short hair (HsdCpb: CADS), plasma, po, 1 mg/kg, oral", "result": 2.17, "unit": "h"}, {"measurement": "bioavailability", "setting": "[4]; domestic short hair (HsdCpb: CADS), plasma, po, 1 mg/kg, bioavailability, individual data, animal no. 101, for AUC 0→∞", "result": 11.6, "unit": "%"}, {"measurement": "bioavailability", "setting": "[4]; domestic short hair (HsdCpb: CADS), plasma, po, 1 mg/kg, bioavailability, individual data, the other animals, for AUC 0→∞", "result": "38.7 to 58.2", "unit": "%"}, {"measurement": "clinical signs", "setting": "[4]; entire course of the study, single oral or i.v. 1 mg/kg", "result": "No specific clinical signs"}, {"measurement": "V/f or V", "setting": "[4]; i.v., 1 mg/kg", "result": "8.8 L/kg and 8.856 L/kg"}, {"measurement": "t ½", "setting": "[4]; i.v., 1 mg/kg", "result": 2.252, "unit": "h"}, {"measurement": "AUC 0 → ∞", "setting": "[4]; i.v., first AUC line (r5), 1 mg/kg", "result": 0.384751, "unit": "µg·h/mL"}, {"measurement": "tolerability", "setting": "[4]; in vivo, 1 mg/kg", "result": "well tolerated"}, {"measurement": "V/f or V", "setting": "[4]; oral, 1 mg/kg", "result": "20.4 L/kg and 20.453 L/kg"}, {"measurement": "t max", "setting": "[4]; oral, 1 mg/kg", "result": 0.438, "unit": "h"}, {"measurement": "t ½", "setting": "[4]; oral, 1 mg/kg", "result": 2.169, "unit": "h"}, {"measurement": "AUC 0 → ∞", "setting": "[4]; oral, first AUC line (r5), 1 mg/kg", "result": 0.150426, "unit": "µg·h/mL"}, {"measurement": "plasma level (Cmax±SD)", "setting": "[5]", "result": "about 2800±2400 ng/ml"}]}
